Laboratory results reported in patent publication US20060276523A1 (priority 2003, published 2006).
Read-outs that look alike come from different tables or passages of the source.

Legend:
[1] = system: isolated rabbit thoracic aorta preparations; assay: Studies on vascular tone: vasorelaxation of noradrenaline-precontracted aortic rings; type: cell-based; conditions: rabbit aortic rings precontracted with noradrenaline 1 μM; for IC50: functional endothelium, read-out: IC50 (μM) ± sem (vasorelaxation)
Method: The ability of the nitroderivatives of ARB to induce vasorelaxation in comparison to native ARB, was tested in vitro in isolated rabbit thoracic aorta preparations (Wanstall J. C. et al., Br. J. Pharmacol., 134:463-472, 2001). Male New Zealand rabbits were anaesthetized with thiopental-Na (50 mg/kg, iv), sacrificed by exsanguinations and then the thorax was opened and the aorta dissected. Aortic ring preparations (4 mm in length) were set up in physiological salt solution (PSS) at 37° C. in small organ chambers (5 ml). The composition of PSS was (mM): NaCl 130, NaHCO3 14.9, KH2PO4 1.2, MgSO4 1.2, HEPES 10, CaCl2, ascorbic acid […] and glucose 1.1 (95% O2/5% CO2; pH 7.4). Each ring was mounted under 2 g passive tension. Isometric tension was recorded with a Grass transducer (Grass FT03) attached to a BIOPAC MP150 System. Preparations were allowed to equilibrate for 1 h, and then contracted submaximally with noradrenaline (NA, 1 μM) and, when the contraction was stable, acetylcholine (ACh, 10 μM) was added. A relaxant response to ACh indicated the presence of a functional endothelium. […] When a stable precontraction was reached, a cumulative concentration-response curve to either of the vasorelaxant agents was obtained in the presence of a functional endothelium. Each arterial ring was exposed to only one combination of inhibitor and vasorelaxant. Moreover, the effect of the soluble guanylyl cyclase inhibitor ODQ (1-H-(1,2,4)-oxadiazol(4,3-a)quinoxalin-1-one) on vasorelaxation elicited by the compounds was examined preincubating the aortic rings with ODQ (10 μM) for 20 min.
Responses to relaxing agents are expressed as a percentage of residual contraction and plotted against concentration of test compound. IC50 values (where IC50 is the concentration producing 50% of the maximum relaxation to the test compound) were interpolated from these plots.
During the experimental period, the plateau obtained with NA was stable without significant spontaneous loss of contraction in the aortic rings.

[2] = system: human platelets; assay: Antiplatelet activity: U46619-induced platelet aggregation in platelet rich plasma (Born method); type: cell-based; conditions: 2 min, human PRP, aggregating agent U46619, incubation 2 min at 37° C., read-out: Platelet aggregation (PRP) (incubation time: 2 min) IC50
Method: Aggregating agent used was U46619, a TxA2 analog, based on the evidence that this agonist is sensitive to the effects of nitric oxide. Compounds were incubated at 37° C. for 2 min before adding the aggregating agent. Aggregation was followed for 5 min and the maximal amplitude (cm) was measured. DMSO (0.05% final concentration) was used as vehicle. Compounds were tested at concentrations ranging from 10 to 100 μM.

[3] = system: spontaneously hypertensive rats (SHRs); assay: Antihypertensive activity in conscious spontaneously hypertensive rats (telemetry); type: in vivo; conditions: SHR; for Systolic blood pressure (mmHg), 30 min: 30 min after dosing; for Systolic blood pressure (mmHg), 30 min / Systolic blood pressure (mmHg), 12 hrs / Systolic blood pressure (mmHg), 24 hrs: losartan 10 mg/kg po, EX. 2 12 mg/kg po (equimolar); for Systolic blood pressure (mmHg), 12 hrs: 12 hrs after dosing; for Systolic blood pressure (mmHg), 24 hrs: 24 hrs after dosing; for Systolic blood pressure (mmHg), Baseline: groups losartan 10 mg/kg po, EX. 2 12 mg/kg po
Description: Systolic blood pressure (SBP) and heart rate were monitored by telemetry at different time points after dosing.

[4] = system: RAW 264.7 macrophages; assay: Inhibition of LPS-induced nitrite accumulation (Griess reaction); type: cell-based; conditions: for Nitrite (% vs vehicle): 25 μM, LPS 1 μg/ml for 16 hrs, RAW 264.7
Method: The experiments were performed using RAW 264.7 monocyte macrophage cell line. Cells were stimulated in the presence of lipopolysaccharide (LPS) (1 μg/ml) for 16 hrs. At the end of the incubation, the culture media were collected and analyzed for nitrite content using a standard Griess reaction.
The results reported in Table 2 are expressed as % of nitrite content for each treatment vs. LPS-treated samples.

Structure (SMILES) | IC50 ([1]; Oryctolagus cuniculus) | IC50 [2] | Systolic blood pressure (mmHg), 30 min ([3]; daily oral dose for 3 days) | Systolic blood pressure (mmHg), 12 hrs ([3]; daily oral dose for 3 days) | Systolic blood pressure (mmHg), 24 hrs ([3]; daily oral dose for 3 days) | Systolic blood pressure (mmHg), Baseline [3] | reduction in blood pressure levels over the treatment period (in words) ([3]; daily oral dose for 3 days) | Nitrite (% vs vehicle) [4] | inhibition of accumulation of nitrites induced by LPS (in words) ([4]; RAW 264.7, LPS) | IC50 [1] | relaxation of aortic rings (in words) [1]
CCCCc1nc(Cl)c(COC(=O)CCCO[N+](=O)[O-])n1Cc1ccc(-c2ccccc2-c2nn[nH]n2)cc1 [EX. 2, 2-butyl-4-chloro-1-[[2′-(1H-tetrazol-5-yl)[1,1′-biphenyl]-4-yl]methyl]-1H-imidazole-5-methanol 4-nitrooxybutanoic acid ester] | 15 ± 3 µM | 11 µM | 115 mmHg | 126 mmHg | 128 mmHg | 143 mmHg | able to induce a clear reduction in blood pressure levels |  |  |  | 
CCCCc1nc(Cl)c(COC(=O)c2cccc(CO[N+](=O)[O-])c2)n1Cc1ccc(-c2ccccc2-c2nn[nH]n2)cc1 [EX. 4, 2-butyl-4-chloro-1-[[2′-(1H-tetrazol-5-yl)[1,1′-biphenyl]-4-yl]methyl]-1H-imidazole-5-methanol 3-(nitrooxymethyl) benzoic acid ester] | 54 ± 16 µM |  |  |  |  |  |  | 61 ± 3 % vs vehicle | able to inhibit the accumulation of nitrites induced by LPS |  | 
CCCCc1nc(Cl)c(COC(=O)CCCCCO[N+](=O)[O-])n1Cc1ccc(-c2ccccc2-c2nnn[nH]2)cc1 [EX. 5, 2-butyl-4-chloro-1-[[2′-(H-tetrazol-5-yl)[1,1′-biphenyl]-4-yl]methyl]-1H-imidazole-5-methanol 6-nitrooxyhexanoic acid ester] |  |  |  |  |  |  |  |  |  | 18 ± 6 µM | 
CCCCc1nc(Cl)c(COC(=O)c2ccc(CO[N+](=O)[O-])cc2)n1Cc1ccc(-c2ccccc2-c2nn[nH]n2)cc1 [EX. 1, 2-butyl-4-chloro-1-[[2′-(1H-tetrazol-5-yl)[1,1′-biphenyl]-4-yl]methyl]-1H-imidazole-5-methanol 4-(nitrooxymethyl) benzoic acid ester] | 33 ± 12 µM | 5 µM |  |  |  |  |  |  |  |  | 
CCCCc1nc(Cl)c(CO)n1Cc1ccc(-c2ccccc2-c2nn[nH]n2)cc1 [Losartan, reference compound] | > 100 µM |  | 133 mmHg | 135 mmHg | 136 mmHg | 143 mmHg |  | 99 ± 9 % vs vehicle |  |  | did not produce relaxation at any of the concentration tested
